Results from patent US20230227477A1, “COMPOUNDS FOR SENSING REACTIVE OXYGEN SPECIES AND METHODS FOR USING THE SAME” (WAKE FOREST UNIVERSITY HEALTH SCIENCES, priority 2020, published 2023).

Key:
[1] = Turn-on fluorescence response of compounds 1a, 1b, 1c in PBS buffer alone and with H2O2; format: physicochemical; details: for turn-on fluorescence response towards H2O2 (in words) / fluorescence (ex: 330 nm, em: 452 nm), in the presence of 1 mM H2O2 / fluorescence (ex: 330 nm, em: 452 nm), PBS Buffer alone: 20 μM probe; for turn-on fluorescence response towards H2O2 (in words): 1 mM H2O2 vs PBS alone, 3 h; for fluorescence (ex: 330 nm, em: 452 nm), in the presence of 1 mM H2O2 / fluorescence (ex: 330 nm, em: 452 nm), PBS Buffer alone: PBS pH 7.4, 37° C., 180 min; for fluorescence (ex: 330 nm, em: 452 nm), PBS Buffer alone: no H2O2
Description: Stock solutions of each probe (compounds 1a, 1b, 1c) at 222.2 μM were prepared in 200-proof ethanol. In addition, a 100 mM hydrogen peroxide stock solution was prepared in freshly degassed 1× PBS buffer (pH 7.4) immediately prior to use. Each reaction vial was prepared using 21.6 mL of PBS buffer, 2160 μL of compound 1a (or compound 1b or 1c) stock solution, and 240 μL of 100 mM hydrogen peroxide stock solution to give final concentrations of 20 μM of compound 1a (or compound 1b or 1c) and 1 mM of hydrogen peroxide. A control sample was prepared using 2160 μL of compound 1a (or 1b or 1c) stock solution in ethanol and diluted with 21.84 mL of freshly degassed 1× PBS buffer to give a final concentration of 20 μM of compound 1a (or 1b or 1c). The reaction and control vials were heated to 37° C. and agitated with a stir bar. At 180 min, 4 mL aliquots were transferred from reaction and control vials to individual quartz cuvettes. Fluorescence measurements (ex: 330 nm, em: 452 nm) were recorded as the mean+/−STDEV from three experiments. Referring to FIG. 3, the results for each of compounds 1a, 1b, and 1c was as follows—(1a): (1) PBS Buffer alone: 3.85+/−0.58; (2) In the presence of 1 mM H2O2: 97.01+/−12.97. (1b): (1) PBS Buffer alone: 0.55+/−0.27; (2) In the presence of 1 mM H2O2: 8.14+/−3.13. (1c): (1) PBS Buffer alone: 102.35+/−0.73; (2) In the presence of 1 mM H2O2: 129.54+/−0.55.

[2] = Persulfide release from compounds 4a and 4b with H2O2 monitored by fluorescence; format: physicochemical; details: 20 μM compound; for change of relative fluorescence intensity over time with H2O2 (in words): 200 μM H2O2, PBS pH 7.4, 37° C., 3 hours
Description: Referring to FIGS. 6A and 6B, compounds 4a and 4b (20 μM) were exposed to H2O2 (200 μM) in PBS buffer (pH 7.4) at 37° C. and the resulting fluorescence intensity was monitored over a period of 3 hours. Immediately prior to use, a 200 μM stock solutions of compound 4a and compound 4b were prepared in cell-grade dimethylsulfoxide (DMSO), and a 200 μM stock of cetyltrimethylammonium bromide (CTAB) was prepared in PBS buffer (pH 7.4). Next, a 2 mM hydrogen peroxide stock solution was prepared by diluting 30% hydrogen peroxide in freshly degassed PBS Buffer (pH 7.4). 30 μL of compound 4a (or compound 4b) was then added to a 96 well plate and diluted with 90 μL of PBS buffer and 150 μL of the CTAB stock solution. The assay was then initiated by the addition of 30 μL, of the 2 mM hydrogen peroxide stock solution rendering a final concentration of 20 μM for compound 4a (or compound 4b), 200 μM of hydrogen peroxide, and 100 μM of CTAB. The control reactions without peroxide were conducted by adding 30 μL of the 200 μM stock of compound 4a to a 96 well plate and diluting with 120 μL of PBS buffer and 150 μL of 200 μM CTAB to make a final concentration of 20 μM of compound 4a and 100 μM of CTAB. The plate was inserted into a 96-well plate reader (BioTek SYNERGY-HTX multi-mode reader, Winooski, Vt.) heated to 37° C., and agitated to ensure homogeneity. The plate was read continuously using a 360/40 nm fluorescence filter and values were recorded as the mean+/−STDEV from three experiments.

[3] = Rate of coumarin release from compound 1a with H2O2 (fluorescence, plate reader); format: physicochemical; details: 20 μM compound 1a, 1000 μM H2O2, PBS pH 7.4, 37° C.
Description: Referring to FIG. 2A, initially appending a coumarin ester to the H2O2-responsive scaffold of compound 1a, it was hypothesized that the release of payload, in response to H2O2, could be monitored via fluorescence spectroscopy while recording the resulting increase in fluorescence intensity upon excitation at 7-hydroxycoumarin's λmax. Therefore, to initially assess the reactivity of the scaffold towards peroxides, compound 1a (20 μM) and H2O2 (1000 μM) was incubated in PBS buffer (pH 7.4) at 37° C. Specifically, immediately prior to use, a 5 mM stock solution of hydrogen peroxide was prepared in freshly degassed 1× PBS buffer (pH 7.4) using reagent grade H2O2 (30% solution). A 200 μM stock solution of probe compound 1a was prepared in 200-proof ethanol. The rate of coumarin release was measured using concentrations of 20 μM compound 1a and 1000 μM H2O2 by adding 30 μL of the probe stock solution, 60 μL of hydrogen peroxide stock solution and 210 μL of PBS buffer (pH 7.4) to each well of a 96 well plate. The plate was inserted into a 96-well plate reader (BioTek SYNERGY-HTX hybrid multi-mode reader, Winooski, Vt.), heated to 37° C., and agitated to ensure homogeneity. The plate was read continuously using a 360/40 nm fluorescence filter and values were recorded as the mean+/−STDEV from three experiments.
To further establish the proposed mechanistic pathway, lactone compound 3 (see FIG. 2A) was isolated and characterized as a definitive byproduct of this transformation. […] Compound 3 was formed as described below.

[4] = test system: HeLa cells; experiment: Protective effects on HeLa cells under H2O2-induced oxidative stress (CCK-8 viability); format: cell-based, human
Description: Next, the protective effects of compound RAH393 on cultured HeLa cells which were under oxidative stress were examined. A population of cells (>6×10^6 cells/mL as determined with a hemocytometer) was diluted with FBS-free DMEM:F12-K, 1:1, 1% penicillin-streptomycin, and 1% L-glutamine to give a final concentration of 50,000 cells/mL. To a 96-well plate was added 100 μL of cell media solution resulting in a total of 5 k cells per well. Plates were then incubated at 37° C. in an atmosphere of 5% CO2 and 95% humidified air for 24 h. Confluent cells were then pre-incubated in FBS-free media with compound RAH393 (or compound 5) (200 μM) for 1 h followed by treatment with H2O2 (200 μM) for an additional 1 h incubation period. Control wells with H2O2 alone (200 μM) were also evaluated on the same plate. After a total incubation period of 2 h, cell contents were then replaced with 100 μL of fresh FBS-free media with 10% CCK-8. Cells were then incubated for 3 h at 37° C. and cell viability was assessed by measuring the resulting absorbance at 450 nm using a 96-well plate reader (BioTek SYNERGY-HTX multi-mode reader, Winooski, Vt.).

[5] = DNFB trapping of released persulfide, LCMS (validation as ROS-activated persulfide donor); format: physicochemical; details: 200 μM compound, 1 mM DNFB; for formation of trapped disulfide compound 7 (persulfide release), LCMS: 1 mM H2O2, ammonium bicarbonate buffer, room temperature
Description: Initially, 5 mM stock solutions of compound RAH393, compound 5, and 2,4-dinitrofluorobenzene (DNFB) were prepared in 200-proof ethanol. In addition, a 100 mM stock solution of hydrogen peroxide in ammonium bicarbonate buffer (1 mM, pH 7.0) was prepared immediately prior to use. To a conical vial containing 1500 μL of 1M ammonium bicarbonate was then added 80 μL of the 5 mM stock of compound RAH393 (or control compound 5), 400 μL of the 5 mM DNFB stock, and 20 μL of 100 mM hydrogen peroxide giving a final concentrations of 200 μM compound RAH393 (or compound 5), 1 mM DNFB, and 1 mM H2O2. At the designated timepoints, a 100 μL aliquot of the room-temperature reaction was diluted with 900 μL of HPLC-grade methanol with 0.1% formic acid for analysis. 75 μL of the resultant solution was then injected onto C18 reverse phase column (Agilent Technologies, SB-C18 Analytical HPLC Col. 4.6×150) and eluted with HPLC-grade methanol (0.1% formic acid) and HPLC-grade water (0.1% formic acid) at a flow rate of 200 μL/min using the following gradient: 0-2 min, 90:10 water:methanol; 2-8 min, 40:60 water:methanol; 8-30 min, 10:90 water:methanol; 30-40 min, 5:95 water:methanol. Retention times of lactone compound 3 (25.0 min), compound RAH393 (35.6 min), compound 5 (27.7 min), and DNFB (16.5 min) were independently validated. When this assay was run using compound RAH393, in addition to compound 7 (21.7 min), the tri- and tetrasulfides of N-acetylcysteamine were also present (14.1 min and 16.2 min, respectively), further confirming persulfide release from compound RAH393.

[6] = test system: HeLa cells; experiment: Cytotoxicity in HeLa cells (phosphatase assay); format: cell-based, human; details: various concentrations, 5 h incubation
Description: First, compound RAH393 and lactone compound 3 were tested for cytotoxicity in HeLa cells. A population of cells (>6×10^6 cells/mL as determined with a hemocytometer) was diluted with FBS-free DMEM:F12-K, 1:1, 1% penicillin-streptomycin, and 1% L-glutamine to give a final concentration of 50,000 cells/mL. To a 96-well plate was added 100 μL of cell media solution resulting in a total of 5 k cells per well. Plates were then incubated at 37° C. in an atmosphere of 5% CO2 and 95% humidified air for 24 h. Fresh culture media (100 μL) was then added to each well of cells resulting in 200 μL of media per well followed by the addition of compound RAH393 or compound 3 at various concentrations (20 mM stock in biological-grade DMSO, resulting in no more than 1% DMSO per well). After incubating for 5 h, a phosphatase assay was used to establish cell viability as follows: Media was removed from each well and replaced with 100 μL of phosphatase solution (100 mg of phosphatase substrate, in 30 mL of 0.1 M NaOAc, pH 5.5, 0.1% Triton X-100 buffer). Following an incubation period of 30 min, 50 μL of 0.10 M NaOH was added to each well and viability was assessed spectrophotometrically at 405 nm using a 96-well plate reader (BioTek SYNERGY-HTX multi-mode reader, Winooski, Vt.). Assays were performed in triplicate and presented as the mean+/−STDEV.

CC(C)(Cc1ccccc1)C(=O)Oc1ccc2ccc(=O)oc2c1 [compound 1b]
turn-on fluorescence response towards H2O2 (in words) [1]: no turn-on response | fluorescence (ex: 330 nm, em: 452 nm), in the presence of 1 mM H2O2 [1]: 8.14+/−3.13 | fluorescence (ex: 330 nm, em: 452 nm), PBS Buffer alone [1]: 0.55+/−0.27

CC(C)(Cc1ccccc1)C(=O)SSc1ccccc1C(=O)Oc1ccc2ccc(=O)oc2c1 [compound 4b]
change of relative fluorescence intensity over time with H2O2 (in words) [2]: trivial

CC(C)(Cc1ccccc1B1OC(C)(C)C(C)(C)O1)C(=O)SSc1ccccc1C(=O)Oc1ccc2ccc(=O)oc2c1 [compound 4a]
kobs (pseudo first-order rate constant) ([2]; 200 μM H2O2, 100 μM CTAB, PBS pH 7.4, 37° C.): 0.012 min⁻¹ | change of relative fluorescence intensity over time with H2O2 (in words) [2]: significantly increase over time | fluorescence profile in PBS buffer alone (in words) ([2]; no H2O2, 100 μM CTAB, 37° C.): nearly identical fluorescence profile to that of compound 4b | half-life at 20 μM ([2]; PBS buffer with 200 μM H2O2 and 100 μM CTAB, 200 μM H2O2, 100 μM CTAB, PBS pH 7.4, 37° C., pseudo first-order, read-out: half-life of reaction with H2O2 (persulfide release)): 60.5 min

CC1(C)OB(c2ccccc2CCC(=O)Oc2ccc3ccc(=O)oc3c2)OC1(C)C [compound 1c]
fluorescence (ex: 330 nm, em: 452 nm), in the presence of 1 mM H2O2 [1]: 129.54+/−0.55 | fluorescence (ex: 330 nm, em: 452 nm), PBS Buffer alone [1]: 102.35+/−0.73 | susceptibility to hydrolysis (in words) ([1]; PBS buffer alone, pH 7.4, 37° C.): highly susceptible to hydrolysis

CC(C)(Cc1ccccc1B1OC(C)(C)C(C)(C)O1)C(=O)Oc1ccc2ccc(=O)oc2c1 [compound 1a]
time at which fluorescence intensity reached a maximum (complete release of coumarin reporter) [3]: roughly 1 h | kobs ([3]; pseudo first-order): 0.024 min⁻¹ | half-life at 20 μM ([3]; PBS buffer with 1000 μM H2O2, pseudo first-order, read-out: half-life (t1/2) of reaction with H2O2): 29.3 min | turn-on fluorescence response towards H2O2 (in words) [1]: selective turn-on fluorescence response towards H2O2 | fluorescence (ex: 330 nm, em: 452 nm), in the presence of 1 mM H2O2 [1]: 97.01+/−12.97 | fluorescence (ex: 330 nm, em: 452 nm), PBS Buffer alone [1]: 3.85+/−0.58

CC(=O)NCCSSC(=O)C(C)(C)Cc1ccccc1 [compound 5]
protection against H2O2-induced oxidative stress (in words) ([4]; pre-treatment 200 μM compound 1 h, then 200 μM H2O2 1 h): no protection | formation of trapped disulfide compound 7 (persulfide release), LCMS [5]: unsuccessful in yielding compound 7

CC(=O)NCCSSC(=O)C(C)(C)Cc1ccccc1B1OC(C)(C)C(C)(C)O1 [compound RAH393]
increase in cell viability ([4]; pre-treatment 200 μM compound 1 h, then 200 μM H2O2 1 h, vs H2O2 alone): 100% | cytotoxicity toward HeLa cells (in words) [6]: neither compound RAH393 nor lactone compound 3 were toxic | formation of trapped disulfide compound 7 (persulfide release), LCMS [5]: formation of disulfide compound 7 was confirmed | production of lactone compound 3, LCMS (in words) ([5]; 1 mM H2O2, over a period of 25 min): linear increase in the production of lactone compound 3

CC1(C)Cc2ccccc2OC1=O [compound 3]
cytotoxicity toward HeLa cells (in words) [6]: neither compound RAH393 nor lactone compound 3 were toxic

OO [H2O2, hydrogen peroxide, reference compound]
cell viability ([4]; 200 μM H2O2 alone, 1 hour): 33%
